Values of other authors, collected in patent US20200261395A1, “METHOD FOR TREATMENT OF ROSACEA” (Sol-Gel Technologies Ltd., priority 2019, published 2020).

Tested on: rosacea lesions
Settings: BPO as sole active agent

In the case of O=C(OOC(=O)c1ccccc1)c1ccccc1 [BPO, Benzoyl peroxide], the “Response of rosacea lesions” value is given as “unresponsive”.
